# Assay results from ChEMBL document CHEMBL5500399, “Design, Synthesis, and Biological Evaluation of 1,2,4-Oxadiazole Derivatives Containing an Aryl Carboxylic Acid Moiety as Potent Sarbecovirus Papain-like Protease Inhibitors” (J Med Chem, 2024).
# Activity calls are given as the source filed them. The rule behind the calls is not given here.
# Legend:
# [1] = biological target: T1, Replicase polyprotein 1ab (Severe acute respiratory syndrome coronavirus 2, UniProt P0DTD1); assay: Inhibition of SARS-CoV2 PLpro using Z-RLRGG-AMC as substrate preincubated for 10 mins followed by substrate addition and measured after 20 sec shaking for 30 mins by time-resolved fluorescence assay
# [2] = biological target: T1, Replicase polyprotein 1ab; assay: Binding affinity to SARS-CoV2 PLpro by biolayer interferometry analysis
# [3] = Metabolic stability in human hepatocytes assessed as half life at 1 uM measured upto 30 mins; assay type: ADME, cell-based, Hepatocyte
# [4] = Metabolic stability in mouse hepatocytes assessed as compound remaining at 1 uM measured after 30 mins; assay type: ADME, cell-based, Hepatocyte; settings: read-out: Stability
# [5] = biological target: Replicase polyprotein 1ab (Severe acute respiratory syndrome coronavirus 2) (UniProt P0DTD1); assay: Potency index, ratio of GRL0617 IC50 to test compound IC50 for inhibition of SARS-CoV2 PLpro
# [6] = Metabolic stability in mouse hepatocytes assessed as half life at 1 uM measured upto 30 mins; assay type: ADME, cell-based, Hepatocyte
# [7] = Metabolic stability in human hepatocytes assessed as compound remaining at 1 uM measured after 30 mins; assay type: ADME, cell-based, Hepatocyte; settings: read-out: Stability
# [8] = Metabolic stability in mouse hepatocytes assessed as intrinsic clearance per million cells at 1 uM measured upto 30 mins; assay type: ADME, cell-based, Hepatocyte; settings: read-out: CLH
# [9] = Metabolic stability in human hepatocytes assessed as intrinsic clearance per million cells at 1 uM measured upto 30 mins; assay type: ADME, cell-based, Hepatocyte; settings: read-out: CLH
# [10] = biological target: Replicase polyprotein 1ab (Severe acute respiratory syndrome coronavirus 2) (UniProt P0DTD1); assay: Binding affinity to SARS-CoV2 PLpro assessed as stabilization by measuring increase melting temperature by thermal shift assay
# [11] = Metabolic stability in human liver microsomes assessed as half life at 1 uM preincubated for 5 mins followed by NADPH addition and measured after 30 mins by LC-MS/MS analysis; assay type: ADME, Microsome; settings: time 35 min
# [12] = biological target: Replicase polyprotein 1ab (Severe acute respiratory syndrome coronavirus 2) (UniProt P0DTD1); assay: Inhibition of RLRGG binding to SARS-CoV2 PLpro
# [13] = system: Severe acute respiratory syndrome-related coronavirus; assay: Inhibition of SARS-CoV PLpro using Z-RLRGG-AMC as substrate preincubated for 10 mins followed by substrate addition and measured after 20 sec shaking for 30 mins by time-resolved fluorescence assay
# [14] = Metabolic stability in human liver microsomes assessed as compound remaining at 1 uM preincubated for 5 mins followed by NADPH addition and measured after 30 mins by LC-MS/MS analysis; assay type: ADME, Microsome; settings: read-out: Stability
# [15] = biological target: Replicase polyprotein 1ab (Severe acute respiratory syndrome coronavirus 2) (UniProt P0DTD1); assay: Inhibition of SARS-CoV2 PLpro cleavage activity using 2Ub-K48 as substrate incubated overnight by SYPRO Ruby staining based SDS-PAGE analysis
# [16] = Metabolic stability in CD-1 mouse liver microsomes assessed as half life at 1 uM preincubated for 5 mins followed by NADPH addition and measured after 30 mins by LC-MS/MS analysis; assay type: ADME, Microsome; settings: time 35 min
# [17] = Metabolic stability in CD-1 mouse liver microsomes assessed as compound remaining at 1 uM preincubated for 5 mins followed by NADPH addition and measured after 30 mins by LC-MS/MS analysis; assay type: ADME, Microsome; settings: read-out: Stability
# [18] = biological target: Replicase polyprotein 1ab (Middle East respiratory syndrome-related coronavirus (isolate UnitedKingdom/H123990006/2012) (Betacoronavirus England 1) (Humancoronavirus EMC)) (UniProt K9N7C7); assay: Inhibition of MERS-CoV PLpro using Z-RLRGG-AMC as substrate preincubated for 10 mins followed by substrate addition and measured after 20 sec shaking for 30 mins by time-resolved fluorescence assay; settings: time 40.3 min
SMILES,IC50 [1],other results
COc1ccc(-c2noc(C(C)c3cccc4ccccc34)n2)cc1NCc1ccc(C(=O)O)s1 (stereo not drawn),1.3 µM,
CC(c1noc(-c2ccc(-c3ccc(C(=O)O)s3)cc2)n1)c1cccc2ccccc12 (stereo not drawn),2.1 µM,
Cc1ccc(-c2noc(Cc3cccc(-c4cccs4)c3)n2)cc1NCc1ccc(C(=O)O)s1,6.8 µM,
Cc1ccc(-c2noc(-c3cccc4ccccc34)n2)cc1NCc1ccc(C(=O)O)s1,11.6 µM,
CONC(=O)c1ccc(-c2ccc(-c3noc(C(C)c4cccc5ccccc45)n3)cc2)cc1 (stereo not drawn),0.9 µM,
Cc1ccc(N)cc1-c1noc(C(C)c2cccc3ccccc23)n1 (stereo not drawn),> 200 µM,
CC(c1ncc(-c2ccc(-c3ccc(C#N)s3)cc2)o1)c1cccc2ccccc12 (stereo not drawn),20.8 µM,
COC(=O)c1ccc(CNc2ccc(C)c(-c3noc(C(C)c4cccc5ccccc45)n3)c2)cc1 (stereo not drawn),> 200 µM,
COc1ccc2cc([C@@H](C)c3nc(-c4ccc(C)c(NCc5ccc(C(=O)O)s5)c4)no3)ccc2c1,10.5 µM,
CC(c1nc(-c2ccc(NCc3ccc(C(=O)O)cc3)cc2)no1)c1cccc2ccccc12 (stereo not drawn),50.2 µM,
Cc1ccc(NCC(C)(C)C)cc1-c1noc(C(C)c2cccc3ccccc23)n1 (stereo not drawn),> 200 µM,
COC(=O)c1ccc(Nc2ccc(C)c(-c3noc(C(C)c4cccc5ccccc45)n3)c2)cc1 (stereo not drawn),70.9 µM,
Cc1ccc(-c2noc([C@@H](C)c3ccc(-c4ccccc4)c(F)c3)n2)cc1NCc1ccc(C(=O)O)s1,3.4 µM,
Cc1ccc(NC2CCC(C(=O)O)CC2)cc1-c1noc(C(C)c2cccc3ccccc23)n1 (stereo not drawn),22.7 µM,
COC1CCC(Nc2ccc(C)c(-c3noc(C(C)c4cccc5ccccc45)n3)c2)CC1 (stereo not drawn),114 µM,
Cc1ccc(-c2noc(C(C)c3ccc(CC(C)C)cc3)n2)cc1NCc1ccc(C(=O)O)s1 (stereo not drawn),3.6 µM,
CC(c1nc(-c2cc(NCc3ccc(C(=O)O)s3)cc(C(F)(F)F)c2)no1)c1cccc2ccccc12 (stereo not drawn),0.1 µM,"Kd [2]: 13.6 µM; half-life at 1 µM [3]: 1.54 h; remaining at 0.5 h, 1 µM [4]: 68%; Ratio IC50 [5]: 10; half-life at 1 µM [6]: 0.898 h; remaining at 0.5 h, 1 µM [7]: 79.8%; hepatocyte CLint at 1 µM [8]: 12.9 µL/min/1e6 cells; hepatocyte CLint at 1 µM [9]: 7.5 µL/min/1e6 cells"
Cc1ccc(NC2CCCC(C(=O)O)C2)cc1-c1noc(C(C)c2cccc3ccccc23)n1 (stereo not drawn),35.1 µM,
Cc1ccc(-c2noc(C(C)(C)c3ccc(-c4ccccc4)cc3)n2)cc1NCc1ccc(C(=O)O)s1,35.4 µM,

SMILES,IC50 [1],other results
Cc1ccc(NCc2cccc(C(=O)O)c2)cc1-c1noc(C(C)c2cccc3ccccc23)n1 (stereo not drawn),11.1 µM,
Cc1ccc(NCc2ccc(S(C)(=O)=O)cc2)cc1-c1noc(C(C)c2cccc3ccccc23)n1 (stereo not drawn),59.2 µM,
CC(c1nc(-c2cccc(NCc3ccc(C(=O)O)o3)c2)no1)c1cccc2ccccc12 (stereo not drawn),96.5 µM,
Cc1ccc(-c2noc(C(C)c3cccc(-c4ccccc4)c3)n2)cc1NCc1ccc(C(=O)O)s1 (stereo not drawn),4.3 µM,
Cc1ccc(NCc2ccc(C(=O)O)cc2)cc1-c1noc(C(C)c2cccc3ccccc23)n1 (stereo not drawn),11.2 µM,
Cc1ccc(-c2noc(C(C)c3cccc4ccccc34)n2)cc1NCc1ccc(C(=O)O)s1 (stereo not drawn),0.1 µM,Ratio IC50 [5]: 10
Cc1ccc(-c2noc(-c3ccc(-c4ccccc4)cc3)n2)cc1NCc1ccc(C(=O)O)s1,25.5 µM,
CC(c1nc(-c2ccc(-c3ccc(C#N)s3)cc2)no1)c1cccc2ccccc12 (stereo not drawn),0.6 µM,
COc1ccc2cc(C(C)c3nc(-c4ccc(C)c(NCc5ccc(C(=O)O)s5)c4)no3)ccc2c1 (racemic),5.9 µM,
Cc1ccc(-c2noc(C(c3ccccc3)c3ccccc3)n2)cc1NCc1ccc(C(=O)O)s1,9 µM,Activity [10]: Active
CC(c1noc(-c2ccc(-c3ccc(C#N)s3)cc2)n1)c1cccc2ccccc12 (stereo not drawn),31.4 µM,
Cc1ccc(NCc2ccc(O)cc2)cc1-c1noc(C(C)c2cccc3ccccc23)n1 (stereo not drawn),176 µM,
Cc1ccc(Nc2ccc(C(=O)O)cc2)cc1-c1noc(C(C)c2cccc3ccccc23)n1 (stereo not drawn),10.7 µM,
CC(c1nc(-c2cc(NCc3ccc(C(=O)O)cc3)cc(C(F)(F)F)c2)no1)c1cccc2ccccc12 (stereo not drawn),0.2 µM,"Kd [2]: 13.6 µM; half-life at 1 µM [3]: 0.608 h; remaining at 0.5 h, 1 µM [4]: 28.8%; half-life at 1 µM [6]: 0.278 h; remaining at 0.5 h, 1 µM [7]: 56.6%; hepatocyte CLint at 1 µM [8]: 41.5 µL/min/1e6 cells; hepatocyte CLint at 1 µM [9]: 19 µL/min/1e6 cells"
Cc1ccc(NCc2ccc(C#N)cc2)cc1-c1noc(C(C)c2cccc3ccccc23)n1 (stereo not drawn),> 200 µM,
Cc1ccc(NCc2ccc(C(=O)O)s2)cc1-c1noc(C(C)c2cccc3ccccc23)n1 (stereo not drawn),10.4 µM,
Cc1ccc(-c2noc(C(C)c3cccc(C(O)c4ccccc4)c3)n2)cc1NCc1ccc(C(=O)O)s1 (stereo not drawn),11.1 µM,
Cc1ccc(-c2noc(C(C)c3cccc(-c4cccs4)c3)n2)cc1NCc1ccc(C(=O)O)s1 (stereo not drawn),4.1 µM,Activity [10]: Active
CC(c1ncc(-c2ccc(-c3ccc(C(=O)O)s3)cc2)o1)c1cccc2ccccc12 (stereo not drawn),7.7 µM,

SMILES,IC50 [1],other results
CC(c1nc(-c2cccc(NCc3ccc(C(=O)O)s3)c2)no1)c1cccc2ccccc12 (stereo not drawn),7.6 µM,
CC(c1nc(-c2ccc(NCc3ccc(C(=O)O)s3)cc2)no1)c1cccc2ccccc12 (stereo not drawn),0.2 µM,"Kd [2]: 13.6 µM; Activity [10]: Active; half-life at 1 µM [11]: > 1.55 h; inhibition [12]: Active; inhibition [13]: Active; remaining at 0.5 h, 1 µM [14]: 102%; inhibition [15]: Active; half-life at 1 µM [16]: > 1.55 h; remaining at 0.5 h, 1 µM [17]: 93.8%; inhibition [18]: Active"
Cc1ccc(-c2noc(C(C)c3cccc4ccccc34)n2)cc1NCc1ccc(C(=O)O)cc1 (stereo not drawn),0.2 µM,
CC(c1nc(-c2ccc(-c3ccc(C(=O)O)cc3)cc2)no1)c1cccc2ccccc12 (stereo not drawn),11.7 µM,
CC(c1nc(-c2ccc(Nc3ccc(C(=O)O)cc3)cc2)no1)c1cccc2ccccc12 (stereo not drawn),4.2 µM,
Cc1ccc(-c2noc(C(C)c3ccc(N4Cc5ccccc5C4=O)cc3)n2)cc1NCc1ccc(C(=O)O)s1 (stereo not drawn),3.9 µM,
Cc1ccc(-c2noc(C(C)c3cccc(Oc4ccccc4)c3)n2)cc1NCc1ccc(C(=O)O)s1 (stereo not drawn),4.4 µM,"half-life at 1 µM [11]: > 1.55 h; inhibition [12]: Active; inhibition [13]: Active; remaining at 0.5 h, 1 µM [14]: 87%; inhibition [15]: Active; half-life at 1 µM [16]: > 1.55 h; remaining at 0.5 h, 1 µM [17]: 80%; inhibition [18]: Active"
CC(c1nc(-c2cc(NCc3ccc(C(=O)O)cc3)ccc2Br)no1)c1cccc2ccccc12 (stereo not drawn),2.1 µM,
CC(c1nc(-c2cccc(NCc3ccc(C(=O)O)cc3)c2)no1)c1cccc2ccccc12 (stereo not drawn),7.5 µM,
Cc1ccc(-c2noc(C(O)c3ccccc3)n2)cc1NCc1ccc(C(=O)O)s1 (stereo not drawn),435 µM,
Cc1ccc(NCc2ccc(C(=O)O)o2)cc1-c1noc(C(C)c2cccc3ccccc23)n1 (stereo not drawn),14.4 µM,
Cc1ccc(-c2noc([C@H](C)c3ccc(-c4ccccc4)c(F)c3)n2)cc1NCc1ccc(C(=O)O)s1,4 µM,
Cc1ccc(-c2noc(-c3ccccc3)n2)cc1NCc1ccc(C(=O)O)s1,59 µM,
Cc1ccc(NC2CCCCC2)cc1-c1noc(C(C)c2cccc3ccccc23)n1 (stereo not drawn),101 µM,
Cc1ccc(NC2CCC(C#N)CC2)cc1-c1noc(C(C)c2cccc3ccccc23)n1 (stereo not drawn),> 200 µM,
COc1ccc2cc([C@H](C)c3nc(-c4ccc(C)c(NCc5ccc(C(=O)O)s5)c4)no3)ccc2c1,5.8 µM,
Cc1ccc(-c2noc(C(C)c3ccc4c(c3)[nH]c3ccc(Cl)cc34)n2)cc1NCc1ccc(C(=O)O)s1 (stereo not drawn),1.9 µM,Kd [2]: 13.6 µM
CC(c1nc(-c2ccc(N(C)Cc3ccc(C(=O)O)s3)cc2)no1)c1cccc2ccccc12 (stereo not drawn),4 µM,
